Source: the supplement of paper PMC4862054

How the values were obtained:
Conditions in all cases: 72 h
SK-BR-3 [1] = test system: SK-BR-3
Summary of the method: (§1)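 Two sequential readouts followed a 72 h incubation of breast cancer cell lines with compound at 5 concentrations in 10-fold steps over a compound-specific 10,000-fold range: CellTox Green fluorescence (485/520 nm) for cell death, then CellTiter-Glo luminescence, after 10 min at room temperature, for viability. Each plate was normalised to 0.1 % DMSO and a positive kill control. Dose-response curves were fitted for EC50, censored at the top concentration.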

HCC1143 [2] = test system: HCC1143
Summary of the method: as §1

MDA-MB-436 [3] = test system: MDA-MB-436
Summary of the method: as §1

CAL-120 [4] = test system: CAL-120
Summary of the method: as §1

BT-549 [5] = test system: BT-549
Summary of the method: as §1

HCC1937 [6] = test system: HCC1937
Summary of the method: as §1

CAL-51 = test system: CAL-51
Summary of the method: as §1

CAL-85-1 [7] = test system: CAL-85-1
Summary of the method: as §1

CAL-148 [8] = test system: CAL-148
Summary of the method: as §1

HDQ-P1 [9] = test system: HDQ-P1
Summary of the method: as §1

DU-4475 [10] = test system: DU-4475
Summary of the method: as §1

MFM-223 [11] = test system: MFM-223
Summary of the method: as §1

Hs578T [12] = test system: Hs578T
Summary of the method: as §1

MDA-MB-453 [13] = test system: MDA-MB-453
Summary of the method: as §1

CAL-148 [14] = test system: CAL-148; remark: listed apart in the source
Summary of the method: (§2)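 Compound dissolved in 5 µl medium was placed in 384-well plates before 20 µl of breast cancer cell suspension was added, and the plates were incubated for 72 h. Cells then received 2.5 µl CellTiter-Blue for 2 h at 37 °C, and fluorescence was read at 560/590 nm. EC50 values come from percent-inhibition dose-response fits that were censored at the highest concentration, with plates normalised to vehicle and a positive kill control and rows with a zero drug sensitivity score excluded.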

MDA-MB-436 [15] = test system: MDA-MB-436; remark: listed apart in the source
Description: (§3)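 Drug sensitivity and resistance testing (DSRT) of breast cancer cell lines in 384-well plates, 5 concentrations in 10-fold dilutions over a compound-specific 10,000-fold range. After 72 h, cytotoxicity was read by CellTox Green fluorescence and viability by CellTiter-Glo luminescence (multiplexed), normalised to DMSO and benzethonium chloride controls. EC50 is the inflection point of the fitted dose-response curve (bottom asymptote free, so it can be relative for partial curves) and is censored at the highest tested concentration. Rows with DSS 0 (no meaningful response) were excluded.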

HDQ-P1 [16] = test system: HDQ-P1; remark: listed apart in the source
Description: as §3

SK-BR-3 [17] = test system: SK-BR-3; remark: listed apart in the source
Summary of the method: as §2

HCC1143 [18] = test system: HCC1143; remark: listed apart in the source
Summary of the method: as §2

MDA-MB-436 [19] = test system: MDA-MB-436; remark: listed apart in the source
Summary of the method: as §2

CAL-120 [20] = test system: CAL-120; remark: listed apart in the source
Summary of the method: as §2

BT-474 [21] = test system: BT-474
Summary of the method: as §2

BT-549 [22] = test system: BT-549; remark: listed apart in the source
Summary of the method: as §2

MDA-MB-231 [23] = test system: MDA-MB-231
Summary of the method: as §2

HCC1937 [24] = test system: HCC1937; remark: listed apart in the source
Summary of the method: as §2

MDA-MB-468 [25] = test system: MDA-MB-468
Summary of the method: as §2

MFM-223 [26] = test system: MFM-223; remark: listed apart in the source
Summary of the method: as §2

Hs578T [27] = test system: Hs578T; remark: listed apart in the source
Summary of the method: as §2

BT-474 [28] = test system: BT-474; remark: listed apart in the source
Summary of the method: as §1

MDA-MB-231 [29] = test system: MDA-MB-231; remark: listed apart in the source
Summary of the method: as §1

HCC1599 [30] = test system: HCC1599
Summary of the method: as §1

CAL-148 [31] = test system: CAL-148; remark: listed apart in the source
Description: as §3

DU-4475 [32] = test system: DU-4475; remark: listed apart in the source
Description: as §3

MFM-223 [33] = test system: MFM-223; remark: listed apart in the source
Description: as §3

HCC1599 [34] = test system: HCC1599; remark: listed apart in the source
Summary of the method: as §2

MCF-10A [35] = test system: MCF-10A
Summary of the method: as §1

BT-474 [36] = test system: BT-474; remark: listed apart in the source
Description: as §3

HCC1937 [37] = test system: HCC1937; remark: listed apart in the source
Description: as §3

HCC1143 [38] = test system: HCC1143; remark: listed apart in the source
Description: as §3

CAL-120 [39] = test system: CAL-120; remark: listed apart in the source
Description: as §3

BT-549 [40] = test system: BT-549; remark: listed apart in the source
Description: as §3

CAL-85-1 [41] = test system: CAL-85-1; remark: listed apart in the source
Description: as §3

MDA-MB-468 [42] = test system: MDA-MB-468; remark: listed apart in the source
Description: as §3

Hs578T [43] = test system: Hs578T; remark: listed apart in the source
Description: as §3

MCF-10A [44] = test system: MCF-10A; remark: listed apart in the source
Description: as §3

MDA-MB-453 [45] = test system: MDA-MB-453; remark: listed apart in the source
Description: as §3

EC50, CellTiter-Glo (SK-BR-3 [1]) [nM] | EC50, CellTiter-Glo (MDA-MB-436 [3]) [nM] | EC50, CellTiter-Glo (BT-549 [5]) [nM] | EC50, CellTiter-Glo (HCC1937 [6]) [nM] | EC50, CellTiter-Glo (MDA-MB-453 [13]) [nM] | EC50, CellTiter-Blue viability (MDA-MB-436 [19]) [nM] | EC50, CellTiter-Blue viability (BT-549 [22]) [nM] | EC50, CellTiter-Blue viability (MDA-MB-468 [25]) [nM] | EC50, CellTiter-Glo (BT-474 [28]) [nM] | EC50, CellTiter-Glo (MDA-MB-231 [29]) [nM] | Structure (SMILES) | EC50, CellTiter-Glo (CAL-51) [nM] | EC50, CellTiter-Glo (CAL-85-1 [7]) [nM] | EC50, CellTiter-Glo (CAL-148 [8]) [nM] | EC50, CellTiter-Glo (HDQ-P1 [9]) [nM] | EC50, CellTiter-Glo (MFM-223 [11]) [nM] | EC50, CellTiter-Glo (Hs578T [12]) [nM] | EC50, CellTiter-Blue viability (CAL-148 [14]) [nM] | EC50, CellTox Green (MDA-MB-436 [15]) [nM] | EC50, CellTiter-Blue viability (Hs578T [27]) [nM] | EC50, CellTox Green (BT-474 [36]) [nM] | further results
0.78 | 1.03 | 0.44 | 0.46 | 1.22 | > 1000 | 0.19 | 0.39 | – | – | CO[C@H]1C[C@@H]2CC[C@@H](C)[C@@](O)(O2)C(=O)C(=O)N2CCCC[C@H]2C(=O)O[C@H]([C@H](C)C[C@@H]2CC[C@@H](OP(C)(C)=O)[C@H](OC)C2)CC(=O)[C@H](C)/C=C(\C)[C@@H](O)[C@@H](OC)C(=O)[C@H](C)C[C@H](C)/C=C/C=C/C=C/1C [Ridaforolimus] | 1.61 | 0.57 | 2.27 | 6.62 | 0.98 | 0.42 | 0.64 | 64.5 | 0.48 | – | EC50, CellTiter-Glo (HCC1143 [2]): 0.91 nM; EC50, CellTiter-Glo (CAL-120 [4]): 0.9 nM; EC50, CellTiter-Glo (DU-4475 [10]): 2.24 nM; EC50, CellTox Green (HDQ-P1 [16]): 0.35 nM; EC50, CellTiter-Blue viability (SK-BR-3 [17]): 1.36 nM; EC50, CellTiter-Blue viability (HCC1143 [18]): 1 nM; EC50, CellTiter-Blue viability (CAL-120 [20]): 1 nM; EC50, CellTiter-Blue viability (BT-474 [21]): 0.55 nM; EC50, CellTiter-Blue viability (MDA-MB-231 [23]): 0.95 nM; EC50, CellTiter-Blue viability (HCC1937 [24]): 1.12 nM; EC50, CellTiter-Blue viability (MFM-223 [26]): 0.24 nM
2780 | 8140 | 1730 | > 10000 | 8860 | 540 | 1560 | – | 4650 | 6230 | c1ccc2c(CCNc3ccc(Nc4ccncc4)cc3)c[nH]c2c1 [Serdemetan] | 315 | 8460 | 2490 | 1230 | > 10000 | 9710 | 4530 | – | 1540 | – | EC50, CellTiter-Glo (HCC1599 [30]): 5240 nM; EC50, CellTiter-Glo (DU-4475 [10]): 2370 nM; EC50, CellTox Green (CAL-148 [31]): 2310 nM; EC50, CellTox Green (DU-4475 [32]): 1810 nM; EC50, CellTox Green (MFM-223 [33]): 7780 nM; EC50, CellTiter-Blue viability (HCC1599 [34]): 1610 nM
– | – | – | 9750 | – | 2200 | – | 5600 | 3620 | – | CN(C)CCOc1ccc(/C(=C(/CCCl)c2ccccc2)c2ccccc2)cc1 [Toremifene] | – | – | – | – | 7340 | – | – | – | – | 6160 | EC50, CellTiter-Glo (MCF-10A [35]): 1710 nM; EC50, CellTox Green (HCC1937 [37]): 3450 nM
– | 335 | 125 | 81.3 | 55.8 | 2740 | 273 | 35.9 | 93.2 | 366 | CC(C)C[C@@H](C(=O)N[C@H](C(=O)OC1CCCC1)c1ccccc1)[C@H](O)C(=O)NO [Tosedostat] | 854 | 182 | 327 | 630 | 528 | 8270 | 2750 | 9.14 | 2140 | 1560 | EC50, CellTiter-Glo (HCC1143 [2]): 405 nM; EC50, CellTiter-Glo (CAL-120 [4]): 127 nM; EC50, CellTox Green (HCC1143 [38]): 7200 nM; EC50, CellTox Green (CAL-120 [39]): 163 nM; EC50, CellTox Green (BT-549 [40]): 1390 nM; EC50, CellTox Green (CAL-85-1 [41]): 140 nM; EC50, CellTox Green (HDQ-P1 [16]): 851 nM; EC50, CellTox Green (MDA-MB-468 [42]): 151 nM; EC50, CellTox Green (Hs578T [43]): > 10000 nM; EC50, CellTiter-Blue viability (HCC1143 [18]): 189 nM; EC50, CellTiter-Blue viability (CAL-120 [20]): 16.7 nM; EC50, CellTiter-Blue viability (MDA-MB-231 [23]): 92.4 nM; EC50, CellTiter-Blue viability (HCC1937 [24]): 121 nM; EC50, CellTiter-Blue viability (MFM-223 [26]): 2230 nM
6170 | 4100 | – | > 10000 | 3150 | – | – | – | 7620 | 4720 | COc1cc2c(NC3CCN(C(C)C)CC3)nc(N3CCC(F)(F)CC3)nc2cc1OCCCN1CCCC1 [UNC0642] | – | 2990 | 5460 | 9830 | 5790 | – | – | 20.9 | – | 2680 | EC50, CellTiter-Glo (MCF-10A [35]): 6610 nM; EC50, CellTox Green (MCF-10A [44]): 4920 nM; EC50, CellTox Green (HCC1937 [37]): 7070 nM; EC50, CellTox Green (CAL-85-1 [41]): 2490 nM; EC50, CellTox Green (CAL-148 [31]): 8400 nM; EC50, CellTox Green (MDA-MB-468 [42]): 3390 nM; EC50, CellTox Green (MDA-MB-453 [45]): 7170 nM
